# Data reported in patent US12060350B2, “Therapeutic compounds and methods of use thereof” (REGENTS OF THE UNIVERSITY OF MINNESOTA, priority 2018, dated 2024).
# System: human whole blood
# Test: IFN-α/β, IFN-γ, and TNF-α/IL-1β whole blood reporter gene assays (cytokine release)
# Assay type: cell-based
# Conditions: FIG. 4
# Method: IFN-α/β, IFN-γ, and TNF-α/IL-1β Whole Blood Reporter Gene Assays. Whole heparinized blood is collected from consenting individuals, as approved by the University of Minnesota Institutional Review Board, and is diluted 1:2 in RPMI supplemented with 10% fetal bovine serum (FBS). Forty microliters is added to 384-well, flat-bottomed, cell culture-treated microtiter plates containing serial dilutions of compounds. Following incubation at 37° C. for 24 h, […] of supernatant is transferred to separate 384-well plates using a liquid handler equipped with liquid level sensing in order to avoid disturbing the erythrocyte-rich pellet. Forty microliters of HEK-IFNα/β, HEK-IFNγ, or HEK-TNFα/IL-β cytokine reporter cells (InvivoGen, San Diego, CA) harvested at a density of 1×10^6 cells/mL in DMEM with 10% FBS is added to the supernatant plates and incubated at 37° C. for 24 h. […] Sigmoidal dose-response profiles for each cytokine are observed (Beesu M. et al. J. Med. Chem. 2017, 2084), from which threshold cytokine concentrations corresponding to maximal responses for each cytokine reporter cell line are recorded. […]
smiles,measurement,value
"CCCCc1nc2c(N)nc3ccccc3c2n1Cc1cc(C)c(O)c(CN)c1 [Compound 29, 4-((4-Amino-2-butyl-1H-imidazo[4,5-c]quinolin-1-yl)methyl)-2-(aminomethyl)-6-methylphenol]",cytokine release in human whole blood,can induce cytokine release strongly
